Measured values from patent publication US20250026721A1, “COMPOUNDS AND METHODS FOR MODULATING RAS-PI3K” (Vividion Therapeutics, Inc., priority 2023, published 2025).

Tests used:
PIK3CA = target: T1, PIK3CA (Homo sapiens, UniProt P42336); assay: In vitro ELISA target engagement assay for PIK3CA in Jurkat cellular lysate (competition with PIK3CA Biotin Probe); assay type: binding; settings: 1 hour at rt, then 500 nM PIK3CA Biotin Probe, read-out: Elisa Target Engagement Assay (TE50)
T1 construct: endogenous in cells; host or cells: Jurkat cell lysate
How it was run: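 Jurkat lysate from sonicated frozen cells was preincubated 1 h at rt with serially diluted compound up to 200 μM, then labelled 1 h at rt with PIK3CA biotin probe at 500 nM final. Probe-bound PIK3CA was captured on antibody-coated plates and detected with Neutravidin-HRP luminescence; TE50 derived from the dose response.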

[1] = system: pAKT(S473) in H358 cell line; assay: In vitro Phospho-AKT(S473) HTRF analysis in H358 cells; assay type: cell-based; settings: Homo sapiens, NCI-H358, 0.5 h; for IC50: H358 cells, 30 minutes at 37° C.; for Emax: read-out: H358 pAKT Imax % control
Procedure: Example 5. In Vitro Phosgho-AKT(S473) Analysis
Functional activity of the compounds to inhibit pAKT were assessed in FaDu or H358 cell lines as indicated below.
• Complete Media • FBS, Corning catalog #35-010-CV • Anti-Anti, Gibco catalog #15240-062 • 96 well plate, Corning catalog #3610 • TrypLE, Gibco catalog #12604013 • Phospho-AKT(S473) HTRF kit, Cisbio catalog #64AKSPET
Cells were detached from the tissue culture flask with TrypLE. The cells were pelleted at 500×g for 5 min, TrypLe was removed and then resuspended in the necessary volume of media+1% FBS to give the appropriate cell density (17,500 cells/mL for FaDu; 20,000 cells/mL for H358). 100 μL of cell suspension/well was dispensed into the 96-well plate while keeping the outer wells of the plate free of cells and filled with PBS to prevent evaporation of interior wells. The plate was incubated at 37° C. and allowed to adhere overnight. The cells were treated with a dose response of compound and incubated at 37° C. for 30 minutes. The cells were then processed and pAKT(S473) levels were assessed following the specifications of the Cisbio HTRF kit.

PIK3CA_C242 = target: T2, PIK3CA_C242 (Homo sapiens, UniProt P42336); assay: Proteomic TE50 (IA-DTB / TMT mass spectrometry) in Jurkat cell lysate; assay type: binding; settings: 1 hour at rt, 7-point dose response
T2 construct: endogenous in cells; host or cells: Jurkat cell lysate
How it was run: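 Jurkat lysate (500 μg) treated with compound (7-point, 1:5 dilutions) for 1 h at rt, then labelled with 200 μM IA-DTB for 1 h. After digestion and streptavidin enrichment, the C242 peptide was quantified by targeted MS3 TMT. TE50 was derived from reporter-ion S/N dose-response curves.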

[2] = system: pAKT(S473) in FaDu cell line; assay: In vitro Phospho-AKT(S473) HTRF analysis in FaDu cells; assay type: cell-based; settings: Homo sapiens, 0.5 h; for IC50: FaDu cells, 30 minutes at 37° C.; for Emax: FaDu, read-out: FaDu pAKT Imax % control
How it was run: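 FaDu or H358 cells were plated overnight in medium with 1% FBS, then exposed to a compound dose response for 30 minutes at 37° C. Phospho-AKT(S473) levels were measured by HTRF.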

T1 sequence (P42336 whole entry): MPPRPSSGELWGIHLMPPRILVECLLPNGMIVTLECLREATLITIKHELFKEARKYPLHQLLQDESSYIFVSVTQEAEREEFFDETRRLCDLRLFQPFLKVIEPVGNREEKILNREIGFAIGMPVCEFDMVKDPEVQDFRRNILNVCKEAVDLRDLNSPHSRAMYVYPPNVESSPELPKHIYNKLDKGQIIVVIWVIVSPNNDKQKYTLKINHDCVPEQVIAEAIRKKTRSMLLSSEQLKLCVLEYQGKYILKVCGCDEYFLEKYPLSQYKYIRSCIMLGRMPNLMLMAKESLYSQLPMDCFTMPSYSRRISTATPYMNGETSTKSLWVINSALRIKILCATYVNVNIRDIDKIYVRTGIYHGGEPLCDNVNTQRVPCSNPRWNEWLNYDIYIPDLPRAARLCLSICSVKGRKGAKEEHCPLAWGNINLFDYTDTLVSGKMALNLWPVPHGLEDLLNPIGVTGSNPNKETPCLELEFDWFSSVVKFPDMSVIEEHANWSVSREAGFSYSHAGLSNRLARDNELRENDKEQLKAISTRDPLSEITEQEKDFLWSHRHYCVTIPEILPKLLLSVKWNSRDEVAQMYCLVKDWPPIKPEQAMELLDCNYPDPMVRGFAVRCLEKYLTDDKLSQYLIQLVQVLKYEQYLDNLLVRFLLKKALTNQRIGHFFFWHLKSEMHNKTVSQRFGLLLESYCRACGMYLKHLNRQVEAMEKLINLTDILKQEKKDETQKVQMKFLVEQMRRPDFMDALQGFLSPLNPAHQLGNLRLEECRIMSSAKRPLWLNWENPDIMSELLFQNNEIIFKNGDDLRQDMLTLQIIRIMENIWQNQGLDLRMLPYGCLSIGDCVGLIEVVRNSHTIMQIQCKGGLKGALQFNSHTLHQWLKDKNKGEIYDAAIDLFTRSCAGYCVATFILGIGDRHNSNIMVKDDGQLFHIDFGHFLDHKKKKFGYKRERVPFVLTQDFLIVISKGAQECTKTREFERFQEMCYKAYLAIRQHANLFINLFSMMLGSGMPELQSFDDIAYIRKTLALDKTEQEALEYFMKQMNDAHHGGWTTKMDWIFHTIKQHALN
T1 sequence (P27986 whole entry partner): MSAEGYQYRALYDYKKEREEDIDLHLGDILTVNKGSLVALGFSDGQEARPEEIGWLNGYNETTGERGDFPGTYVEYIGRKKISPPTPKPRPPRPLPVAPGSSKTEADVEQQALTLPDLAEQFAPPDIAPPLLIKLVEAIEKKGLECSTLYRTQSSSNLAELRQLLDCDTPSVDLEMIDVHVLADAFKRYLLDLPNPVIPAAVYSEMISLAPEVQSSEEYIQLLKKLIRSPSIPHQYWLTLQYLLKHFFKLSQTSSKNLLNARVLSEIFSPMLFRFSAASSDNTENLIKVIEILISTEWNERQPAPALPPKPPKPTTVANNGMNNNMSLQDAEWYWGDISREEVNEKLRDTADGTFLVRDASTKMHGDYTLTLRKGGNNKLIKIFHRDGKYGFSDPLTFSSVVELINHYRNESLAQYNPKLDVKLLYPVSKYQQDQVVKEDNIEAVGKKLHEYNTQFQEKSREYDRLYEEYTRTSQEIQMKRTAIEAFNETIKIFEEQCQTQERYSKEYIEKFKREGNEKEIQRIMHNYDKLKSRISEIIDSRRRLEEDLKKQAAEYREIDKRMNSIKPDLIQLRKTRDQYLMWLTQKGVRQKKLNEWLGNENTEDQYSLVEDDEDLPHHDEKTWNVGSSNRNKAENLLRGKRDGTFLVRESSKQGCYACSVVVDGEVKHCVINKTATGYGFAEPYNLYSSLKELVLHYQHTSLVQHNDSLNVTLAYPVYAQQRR
T2 sequence (P42336 whole entry): as the sequence (P42336 whole entry) above
T2 sequence (P27986 whole entry partner): as the sequence (P27986 whole entry partner) above

SMILES	IC50 (PIK3CA)	IC50 [1]	IC50 (PIK3CA_C242)	IC50 [2]	Emax [1]	Emax [2]
COc1ccc(S(=O)(=O)N2CC[C@@](F)(C(=O)N[C@H](C)/C=C\S(C)(=O)=O)C[C@H]2C)c(-c2ccccc2Cl)c1 [Compound 141, (2R,4S)-1-[2-(2-chlorophenyl)-4-methoxy-phenyl]sulfonyl-4-fluoro-2-methyl-N—[(Z,1R)-1-methyl-3-methylsulfonyl-allyl]piperidine-4-carboxamide]	75 nM	–	50 nM	82.4 nM	–	102%
C[C@H](/C=C\S(C)(=O)=O)NC(=O)[C@@]1(F)CCCN(C(=O)N2CCN(CC(F)(F)F)C[C@H]2c2ccccc2Cl)CC1 (single isomer, unassigned) [Compound 309, (R)-1-((*R)-2-(2-chlorophenyl)-4-(2,2,2-trifluoroethyl)piperazine-1-carbonyl)-4-fluoro-N—((R,Z)-4-(methylsulfonyl)but-3-en-2-yl)azepane-4-carboxamide]	390 nM	276 nM	–	–	91.8%	–
C[C@H](/C=C\S(C)(=O)=O)NC(=O)[C@@]1(F)CCCN(C(=O)[C@H]2CN(CC(F)(F)F)C[C@H]2c2ccccc2F)CC1 (single isomer, unassigned) [Compound 223, (R)-4-fluoro-1-((3*R,4*R)-4-(2-fluorophenyl)-1-(2,2,2-trifluoroethyl)pyrrolidine-3-carbonyl)-N-((R,Z)-4-(methylsulfonyl)but-3-en-2-yl) azepane-4-carboxamide]	510 nM	346 nM	–	–	87.5%	–
C[C@H](/C=C\S(C)(=O)=O)NC(=O)[C@@]1(F)CCCN(C(=O)[C@@H]2CN(CC(F)(F)F)C[C@@H]2c2c(F)cc(F)cc2Cl)CC1 (single isomer, unassigned) [Compound 227, (R)-1-((3*S,4*S)-4-(2-chloro-4,6-difluorophenyl)-1-(2,2,2-trifluoroethyl)pyrrolidine-3-carbonyl)-4-fluoro-N-((R,Z)-4-(methylsulfonyl)but-3-en-2-yl)azepane-4-carboxamide]	340 nM	250 nM	–	–	102%	–
C[C@H](/C=C\S(C)(=O)=O)NC(=O)C1(F)CCN(S(=O)(=O)c2ccc(C#N)cc2-c2ccccc2Cl)CC1 [Compound 35, (R,Z)-1-((2′-chloro-5-cyano-[1,1′-biphenyl]-2-yl)sulfonyl)-4-fluoro-N-(4-(methylsulfonyl)but-3-en-2-yl)piperidine-4-carboxamide]	165 nM	–	140 nM	330 nM	–	103%
COc1cc(-c2ccccc2Cl)c(S(=O)(=O)N2CCC(F)(C(=O)N[C@@H](C)/C=C\S(C)(=O)=O)CC2)cn1 [Compound 187, (S,Z)-1-((4-(2-chlorophenyl)-6-methoxypyridin-3-yl)sulfonyl)-4-fluoro-N-(4-(methylsulfonyl)but-3-en-2-yl)piperidine-4-carboxamide]	–	–	68.1 nM	152 nM	–	70.1%
C[C@H](/C=C\S(C)(=O)=O)NC(=O)[C@@]1(F)CCCN(C(=O)[C@@H]2CN(CC(C)(F)F)C[C@@H]2c2cccc(F)c2Cl)CC1 (single isomer, unassigned) [Compound 222, (R)-1-((3*S,4*S)-4-(2-chloro-3-fluorophenyl)-1-(2,2-difluoropropyl)pyrrolidine-3-carbonyl)-4-fluoro-N-((R,Z)-4-(methylsulfonyl)but-3-en-2-yl)azepane-4-carboxamide]	210 nM	146 nM	–	–	91%	–
COc1ccc(S(=O)(=O)N2CC[C@@](F)(C(=O)N[C@H](C)/C=C/C(=O)N3CC(F)(F)C3)C[C@H]2C)c(-c2ccccc2Cl)c1 [Compound 151, (2R,4S)-1-((2′-chloro-5-methoxy-[1,1′-biphenyl]-2-yl)sulfonyl)-N-((R,E)-5-(3,3-difluoroazetidin-1-yl)-5-oxopent-3-en-2-yl)-4-fluoro-2-methylpiperidine-4-carboxamide]	226 nM	–	200 nM	284 nM	–	100%
C[C@H](/C=C\S(C)(=O)=O)NC(=O)C1(F)CCN(S(=O)(=O)c2ccc(C(F)(F)F)cc2-c2ccccc2Cl)CC1 [Compound 33, (R,Z)-1-((2′-chloro-5-(trifluoromethyl)-[1,1′-biphenyl]-2-yl)sulfonyl)-4-fluoro-N-(4-(methylsulfonyl)but-3-en-2-yl)piperidine-4-carboxamide]	158 nM	–	133 nM	409 nM	–	86.2%
C[C@H](/C=C\S(C)(=O)=O)NC(=O)C1(F)CCN(S(=O)(=O)c2cnc(C(F)(F)F)cc2-c2ccccc2Cl)CC1 [Compound 207, (R,Z)-1-((4-(2-chlorophenyl)-6-(trifluoromethyl)pyridin-3-yl)sulfonyl)-4-fluoro-N-(4-(methylsulfonyl)but-3-en-2-yl)piperidine-4-carboxamide]	184 nM	–	150 nM	803 nM	–	75.2%
C[C@H](/C=C/C(=O)N1CC(F)(F)C1)NC(=O)C1(F)CCN(S(=O)(=O)c2ccc(C(F)(F)F)cc2-c2ccccc2Cl)CC1 [Compound 134, 1-[2-(2-chlorophenyl)-4-(trifluoromethyl)phenyl]sulfonyl-4-fluoro-N—[(E,1R)-4-(3,3-difluoroazetidin-1-yl)-1-methyl-4-oxo-but-2-enyl]piperidine-4-carboxamide]	177 nM	–	150 nM	348 nM	–	96.3%

Further lines, with some results ahead:

IC50 (PIK3CA)	IC50 [1]	IC50 (PIK3CA_C242)	IC50 [2]	SMILES	Emax [1]	Emax [2]
620 nM	151 nM	–	–	C[C@H]1C[C@](F)(C(=O)N[C@@H]2C=CS(=O)(=O)C2)CCN1C(=O)[C@H]1CN(CC(F)(F)F)C[C@H]1c1cccc(F)c1Cl (single isomer, unassigned) [Compound 175, (2*S,4*S)-1-((3*R,4*R)-4-(2-chloro-3-fluorophenyl)-1-(2,2,2-trifluoroethyl)pyrrolidine-3-carbonyl)-N-((R)-1,1-dioxido-2,3-dihydrothiophen-3-yl)-4-fluoro-2-methylpiperidine-4-carboxamide]	75.6%	–
640 nM	465 nM	–	–	C[C@H]1C[C@](F)(C(=O)N[C@@H]2C=CS(=O)(=O)C2)CCN1C(=O)[C@@H]1CN(CC(C)(F)F)C[C@@H]1c1cccc(F)c1Cl (single isomer, unassigned) [Compound 225, (2*S,4*S)-1-((3*S,4*S)-4-(2-chloro-3-fluorophenyl)-1-(2,2-difluoropropyl)pyrrolidine-3-carbonyl)-N-((R)-1,1-dioxido-2,3-dihydrothiophen-3-yl)-4-fluoro-2-methylpiperidine-4-carboxamide]	78.8%	–
880 nM	694 nM	–	–	C[C@H](/C=C\S(C)(=O)=O)NC(=O)[C@@]1(F)CCCCN(C(=O)[C@H]2CN(CC(F)(F)F)C[C@H]2c2ccccc2Cl)CC1 (single isomer, unassigned) [Compound 272, (*R)-1-((3R,4R)-4-(2-chlorophenyl)-1-(2,2,2-trifluoroethyl)pyrrolidine-3-carbonyl)-4-fluoro-N-((R,Z)-4-(methylsulfonyl)but-3-en-2-yl)azocane-4-carboxamide]	89.8%	–
1100 nM	622 nM	–	–	C[C@H](/C=C\S(C)(=O)=O)NC(=O)C1(F)CCN(C(=O)[C@H]2CN(CC(F)(F)F)C[C@H]2c2ccccc2Cl)C1 (stereo partly drawn) [Compound 314, 1-((3R,4R)-4-(2-chlorophenyl)-1-(2,2,2-trifluoroethyl)pyrrolidine-3-carbonyl)-3-fluoro-N-((R,Z)-4-(methylsulfonyl)but-3-en-2-yl)pyrrolidine-3-carboxamide]	100%	–
210 nM	123 nM	–	–	C[C@H]1C[C@](F)(C(=O)N[C@@H]2C=CS(=O)(=O)C2)CCN1C(=O)[C@H]1CN(CC(C)(F)F)C[C@H]1c1ccccc1Cl (single isomer, unassigned) [Compound 221, (2*S,4*S)-1-((3R,4R)-4-(2-chlorophenyl)-1-(2,2-difluoropropyl)pyrrolidine-3-carbonyl)-N-((R)-1,1-dioxido-2,3-dihydrothiophen-3-yl)-4-fluoro-2-methylpiperidine-4-carboxamide]	85%	–
370 nM	–	–	834 nM	O=C([C@H]1CN(CC(F)(F)F)C[C@H]1c1ccccc1Cl)N1CCC(F)(C(=O)N[C@@H]2C=CS(=O)(=O)C2)CC1 [Compound 164, 1-((3R,4R)-4-(2-chlorophenyl)-1-(2,2,2-trifluoroethyl)pyrrolidine-3-carbonyl)-N—((R)-1,1-dioxido-2,3-dihydrothiophen-3-yl)-4-fluoropiperidine-4-carboxamide]	–	103%
